Laboratory results: patent US20210085585A1, “A PERSONAL CARE COMPOSITION” (Conopco, Inc., d/b/a UNILEVER, priority 2017, published 2021)

Test system: co-cultures of HaCaT keratinocytes and neonatal primary human epidermal melanocytes
Assay: Melanin content assay (cellular melanin content in keratinocyte-melanocyte co-cultures)
Assay type: cell-based
Settings: 72 h treatment, average % reduction in cellular melanin content; for inhibition at 10000 µM: single active at 10 mM
Method: Neonatal primary human epidermal melanocytes were sourced from Life Technologies. Melanocytes were maintained in Medium 254 supplemented with Human Melanocyte Growth Supplement-2 (MGM).
HaCaT keratinocytes were maintained in DMEM medium containing 10% heat inactivated foetal bovine serum. All media were also supplemented with 10 U/mL penicillin G and 0.1 mg/mL streptomycin sulphate. Both cell types were maintained at 37° C. in a humidified incubator with 5% CO2 atmosphere.
Maintenance and sub-culturing of cells were carried out as per the manufacturer's instructions. For setup of co-cultures, HaCaT keratinocytes and melanocytes, each 40,000 cells were mixed (1:1 ratio) in 1 mL of a 1:1 mix of MGM:GM (KGM: EpiLife Medium supplemented with Human Keratinocyte Growth Supplement) and seeded as such per well, in 12 well Nunc plates.
Actives were prepared in media and test concentrations were added to cells along with relevant controls 24 h post seeding. After 72 h of active treatment, cell viability (using calcein method) and measurement of cellular melanin content was determined as described below.
After calcein fluorescence readings were obtained, cells were drained and fresh 0.15 mL of 1N NaOH (in 10% DMSO) per well was added. Cells were lysed by resuspension and incubated (60° C. for 1 h). Then, 0.1 mL of this lysate was transferred to a fresh 384-well plate and OD was measured at 405 nm in a TECAN M1000 plate reader (estimate of relative melanin content).

| Structure (SMILES) | inhibition at 100 µM (single active at 100 uM) | inhibition at 1000 µM (single active at 1 mM) | inhibition at 10000 µM |
| --- | --- | --- | --- |
| O=C(O)CCN1CCCCC1 [1PP, 1-piperidinepropionic acid] | 1% | -5% | 0% |
| NC(=O)c1cccnc1 [3-pyridinecarboxamide] | – | – | 0% |
